These results are taken from patent US20090062403A1, “Compositions and Methods for Treatment of Disorders of Protein Aggregation” (priority 2004, published 2009).

Data set [1] deals with Aβ oligomers. Type of data set: in vivo. Particulars: rat. The text has this:
The Aβ oligomers are naturally produced by cells transfected with genes that over-produce the amyloid precursor protein (APP). APP is cleaved by secretase(s) and the cells construct the oligomeric Aβ into molecules ranging from 2 to 12 amyloid proteins (2 mer to 12 mer) and secrete it into the culture medium (CM) of cultured cells. In addition, oligomeric Aβ is extracted from brain homogenate taken from transgenic mice (Tg2576) transfected with the Swedish APP mutation. […] These purified oligomeric forms of Aβ, at physiological concentrations relevant to those found in AD, are injected into the rat's lateral ventricle through an indwelling cannula while the animals are awake and moving. Two hours after injection the rats are tested under sensitive cognitive assay.
The assay, the Alternating Lever Cyclic Ratio (ALCR) test, has proven to be much more sensitive than previously published methods for measuring drug effects on cognitive function. In this task, rats must learn a complex sequence of lever-pressing requirements in order to earn food reinforcement in a two-lever experimental chamber. Subjects must alternate between two levers by switching to the other lever after pressing the first lever enough to get food reward. The exact number of presses required for each food reward changes, first increasing from 2 responses per food pellet up to 56 presses per food pellet, then decreasing back to 2 responses per pellet. Intermediate values are based on the quadratic function, x^2−x. One cycle is an entire ascending and descending sequence of these lever press requirements (e.g., 2, 6, 12, 20, 30, 42, 56, 56, 42, 30, 20, 12, 6, and 2 presses per food reward). Six such full cycles are presented during each daily session.
Oligomeric Aβ: Prepared from transfected Chinese Hamster Ovary Cells (7PA2 cells). These cells secrete oligomeric Aβ into the culture medium (CM) at physiological levels. Aβ oligomers was also derived from Tg2576 mouse brain and purified by size exclusion chromatography. Samples of oligomeric Aβ were characterized by Western Blot Analysis. Appropriate control compounds were produced and tested for each active Aβ oligomeric configuration. Rats: Forty (40) rats were trained under ALCR for approximately 3 months until their error rates are stable. Training sessions were conducted 5 days each week. Surgery: After training, all rats received a single 28 ga. cannula that was permanently affixed to the skull, and aimed at the lateral ventricle (divided equally between left and right). Rats were allowed 5 days to recover from surgery. Administration: In vivo administration of AZD103 to rats was performed by dissolving AZD103 into drinking water. Different concentrations were prepared, and the average daily water intake used to target specific average daily dose levels. These dose levels were therefore approximate. Testing: AZD 103 was tested against Aβ oligomers known to disrupt cognitive function. Two general procedures were incorporated. • 1. AZD 103 was incubated with the injectate medium containing Aβ oligomers prior to assessing it's affect on ALCR. Appropriate control injections were included un-incubated (untreated) Aβ oligomers as well as AZD 103 were injected ICV. • 2. Rats were treated with AZD 103, administered in drinking water, for at least 3-4 days prior to testing ICV injection of Aβ oligomers preparations known to affect cognitive function under ALCR.
Treatments were assessed in the following order: • 1. ICV 7PA2 CM alone • 2. ICV AZD 103 alone • 3. ICV ex vivo incubated 7PA2 CM with AZD 103 • All rats received treatments 1-3 in randomized order. • 4. ICV 7PA2 CM after 4 days treatment with PO AZD103 30 mg/kg/day. • 5. ICV 7PA2 CM after 4 days treatment with PO AZD103 100 mg/kg/day. • 6. ICV 7PA2 CM after 4 days treatment with PO AZD103 300 mg/kg/day. • 7. ICV 7PA2 CM after 4 days with no treatment. […]

For data set [2], the system named is Aβ oligomers. Particulars: rat, in vivo.
Chain of Aβ oligomers (P05067 672-711 limits assumed): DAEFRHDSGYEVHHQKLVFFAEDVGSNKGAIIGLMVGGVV
Data set [3] deals with T1, Aβ42 (Homo sapiens, UniProt P05067).
T1 construct: from tissue; host or cells: hemi-brain homogenate of TgCRND8 transgenic mice
T1 sequence (P05067 672-713 limits assumed): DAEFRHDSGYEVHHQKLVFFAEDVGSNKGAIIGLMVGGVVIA
Kind of data set: Plasma Aβ42 levels in TgCRND8 mice. Type of data set: in vivo, mouse. Particulars: TgCRND8 mice following 28 days of therapy at five months of age.

Data set [4] concerns TgCRND8 mice. Description: Morris Water Maze spatial reference memory test in TgCRND8 mice. Type of data set: in vivo, mouse.
The test system of data set [5] is Aβ oligomers. Kind of data set: IP/Western blot of Aβ oligomers in 7PA2 conditioned media. Type of data set: cell-based, human. The protocol: Preparation of conditioned media: CHO— or 7PA2 cells were grown to ˜90% confluency. The cells were washed 1× in serum-free DMEM, then incubated overnight (˜15 hrs) in 4 ml/10 cm dish in serum-free DMEM, pen/strep, 1-glutamine with/without AZD-103. The following day, the conditioned media (CM) was collected, spun at 1000×g and treated with complete protease inhibitors (in mg/ml 1 leupeptin, 1 pepstatin, 0.1 aprotinin, 40 EDTA, and 2 mM 1/10 phenantroline) for biochemistry experiments or cell culture compatible protease inhibitors (Sigma P1860 1:1000) for electrophysiology experiments. The CM was stored at −80° C. until sufficient volumes were collected to complete a “batch”—typically ˜300 ml. […] The resulting concentrate was pooled, aliquoted in 1 ml fractions, and stored at −80° C. […] Therefore, for any given set of experiments (i.e. dose response curve, time curve, etc), a single batch is prepared and compared to 7PA2 alone within that batch.
IP/Western blots: 8 ml of 7PA2 CM were precleared with […] of protein A agarose for 30 min. The beads were spun down, and […] of the polyclonal anti-Aβ antibody R1282 was added to the supernatant with an additional 40 μl of protein A agarose. These samples were nutated at 4° C. overnight. The beads were washed with a series of buffers 0.5 STEN (sodium chloride, tris, EDTA, NP-40), SDS STEN, STEN. 2× tricine sample buffer was added to the washed beads, which were then boiled, centrifuged, and the resulting supernatant loaded onto 10-20% tricine gels. The proteins were then transferred to nitrocellulose, and probed with the anti-Aβ antibody 6E10.
(In western blotting, separated proteins are transferred to a membrane and probed.)

Where [6] appears, read: ICV AZD103 alone, % of baseline errors.
The mark [7] stands for this setting: ICV Aβ oligomers incubated ex vivo with AZD103, % of baseline errors.
Where [8] appears, read: ICV oligomers after 4 days p.o. 30 mg/kg/day in drinking water.
Where [9] appears, read: ICV oligomers after 4 days p.o. 100 mg/kg/day in drinking water.
Where [10] appears, read: ICV oligomers after 4 days p.o. 300 mg/kg/day in drinking water.
The mark [11] stands for this setting: 1.25 μM applied to 7PA2 CM (post-cond).

“Also recorded” adds a separate entry of the source. Like-named read-outs stand apart in the source and are kept apart here.

As to “1,3,5/2,4,6-(scyllo-) cyclohexanehexol [Scyllo-cyclohexanehexol]”, in data set [1] (ICV AZD103 alone), the “performance in ALCR when administered without oligomers” value is “no impact on performance”. Moreover, the Perseveration % errors in data set [1] (setting [6]) worked out at 99%; in data set [1] (setting [7]), 100%; in data set [1] (setting [8]) it was 120%; in data set [1] (setting [9]), 120%; in data set [1] (setting [10]) it was 99%. The Switching % errors is 99% in data set [1] (setting [6]); 95% in data set [1] (setting [7]); 109% in data set [1] (setting [8]); 100% in data set [1] (setting [9]); 109% in data set [1] (setting [10]). Besides, in data set [2], the “brain penetrance following oral dosing” value is on record as “sufficiently brain penetrant”. In addition, the “Plasma Aβ42 levels” value in data set [3] is 990 ± 73 pg/mL. Moreover, the “effects on cognition and pathology” value in data set [4] (TgCRND8 mice, administered for 2 months, ending at 7 months of age) is “Sustained effects both on cognition and pathology were observed”. For the same substance, the “Spatial learning performance (Morris Water Maze) compared to untreated TgCRND8 littermates” value in data set [4] (TgCRND8 mice, oral treatment for 28 days from 5 months of age, tested at 6 months) is “significantly better behavioural performance compared to untreated TgCRND8 mice; also recorded: significantly better than untreated TgCRND8 littermates”. Moreover, the “% time in target quadrant (probe trial, alternate measure)” value in data set [4] (separate cohort of TgCRND8 mice, data not shown) is “not statistically different from non-Tg littermates”. In addition, in data set [5] (setting [11]), the “Aβ dimer on Western blots” value is on record as “unaffected”. Also, the “Aβ trimer on Western blots” value in data set [5] (setting [11]) is reported as “reduced the trimer”. For the same substance, the “Aβ dimer and trimer levels measured absolutely and normalized to monomer” value in data set [5] (dose response, pre-cond and post-cond, all concentrations) is “appeared to reduce dimer and trimer levels”.
